# Test results from patent US20230145764A1, “BLOOD-BASED TUMOR MUTATION BURDEN PREDICTS OVERALL SURVIVAL IN NSCLC” (MEDIMMUNE, LLC, priority 2018, published 2023).
# How the values were obtained:
# [1] = system: mNSCLC; assay: MYSTIC ctDNA mutation analysis (STK11, KEAP1, ARID1A), overall survival by mutation status; type: in vivo, human
# Experimental: This example investigated associations between selected mutations and survival outcomes. Circulating tumour DNA from baseline plasma specimens was profiled using the GuardantOMNI platform. Samples were available from 1003 patients (89.7% of ITT population). 943 samples were mutation-evaluable. Survival outcomes were analysed in patients with or without non-synonymous somatic mutations in STK11, KEAP1, or ARID1A, or KRAS.
# [2] = system: metastatic NSCLC; assay: MYSTIC phase 3 study, efficacy by blood TMB (GuardantOMNI) or tissue TMB (FoundationOne) subgroup; type: in vivo, human
# Experimental: (§1) Patients continued treatment until objective disease progression (according to RECIST v1.1), development of an adverse event (AE) that necessitated treatment discontinuation, or withdrawal of consent.
# Blood TMB was evaluated using the GuardantOMNI next-generation sequencing platform (Guardant Health, Redwood City, Calif., USA) comprised of 500 genes (FIG. 1).
# The OMNI TMB algorithm incorporates somatic single nucleotide variants (SNVs), short insertions/deletions (indels), copy number amplifications and fusions, and is optimized to calculate TMB on blood samples with low cell-free circulating tumor DNA content (Merck Sharp & Dohme. Keytruda® (pembrolizumab) Summary of Product Characteristics. Updated March 2019. Available at: https://www.medicines.org.uk/emc/product/6947/smpc (last accessed May 1, 2019); Reck et al., N. Engl. J. Med. 375(19): 1823-33 (2016)). Both synonymous and nonsynonymous SNVs and indels were included, with removal of those with low shedding values, low diversity, and associations with clonal hematopoiesis, germline and oncogenic driver or drug resistance mechanisms. Tissue TMB was evaluated using the FoundationOne tissue next-generation sequencing platform (Foundation Medicine, Cambridge, Mass., USA). The algorithm has been described previously (Merck Sharp & Dohme. Keytruda® (pembrolizumab) prescribing information. Updated April 2019. Available at: https://www.merck.com/product/usa/pi_circulars/k/keytruda/keytruda_pi.pdf (last accessed May 1, 2019)).
# (§2) Efficacy was analyzed on an intention-to-treat (ITT) basis, including all randomized patients or subsets of this population based on PD-L1 expression or TMB levels. Safety analyses included all patients who received at least one dose of study treatment (as-treated population).
# (§3) Odds ratios and 95% CI for comparing ORR between treatment groups were calculated using a logistic regression model, adjusted for the same factors as PFS and OS. Prespecified TMB analysis was performed using an unstratified log-rank test, with HRs and 95% Cis estimated using a Cox proportional hazards model.
# [3] = system: xenograft model; settings: via a T-cell dependent mechanism; cited from earlier work
# [4] = molecular target: PD-L1 (Homo sapiens, UniProt Q9NZQ7); settings: in vitro; cited from earlier work
# Chain of PD-L1 (Q9NZQ7 19-290): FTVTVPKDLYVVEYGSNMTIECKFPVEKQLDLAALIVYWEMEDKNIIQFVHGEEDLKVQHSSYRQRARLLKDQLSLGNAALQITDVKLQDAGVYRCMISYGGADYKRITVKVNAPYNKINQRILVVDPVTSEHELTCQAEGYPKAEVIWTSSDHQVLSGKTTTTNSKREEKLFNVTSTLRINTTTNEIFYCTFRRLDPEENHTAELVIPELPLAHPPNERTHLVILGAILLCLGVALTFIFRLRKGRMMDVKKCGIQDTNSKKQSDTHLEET
# [5] = MYSTIC phase 3 study, safety (adverse events, as-treated population); settings: in vivo
# Experimental: as §1
# (§4) Tumor response was assessed by BICR using RECIST v1.1, with imaging performed every 6 weeks for the first 48 weeks, then every 8 weeks, until confirmed disease progression. Patients were followed for survival. AEs were graded according to National Cancer Institute Common Terminology Criteria for Adverse Events version 4.03.
# as §2
# [6] = system: metastatic NSCLC; assay: MYSTIC phase 3 study, efficacy (OS, PFS, tumor response) in ITT population and PD-L1 expression subgroups; type: in vivo, human; settings: for ORR, %: BICR per RECIST v1.1
# Source text: Adult patients with Stage IV NSCLC were eligible provided they had not previously received systemic therapy for advanced/metastatic NSCLC, had Eastern Cooperative Oncology Group performance status 0-1, measurable disease according to Response Evaluation Criteria in Solid Tumors version 1.1 (RECIST v1.1) (Chaft et al., Cancer Res. 78(13 Suppl) (abstr. CT113) (2018)), and known tumor PD-L1 expression status prior to randomization. Patients with sensitizing EGFR mutations or ALK rearrangements, and those with symptomatic, unstable brain metastases were excluded.
# as §1
# Investigation of the relationship between biomarkers, including TMB, and clinical outcomes were also determined.
# PD-L1 expression was evaluated using multiple cut-offs at a central laboratory using the VENTANA PD-L1 (SP263) immunohistochemistry (IHC) assay (Ventana Medical Systems, Tucson, Ariz., USA) (Rebelatto et al., Diagn. Pathol. 11(1): 95 (2016)). Tumor samples obtained within 3 months prior to screening were permitted.
# as §4, §2
# To control the type I error at 5% (two-sided), a hierarchical multiple testing procedure with gatekeeping strategy was used across endpoints, analysis populations, and treatment regimens. The primary PFS analysis was performed using a stratified log-rank test adjusting for histology, with hazard ratio (HR) and 99.5% confidence interval (CI) estimated using a Cox proportional hazards model. […] Survival curves were generated using the Kaplan-Meier method.
# as §3
# [7] = system: Fc receptors; settings: cited from earlier work
# [8] = molecular target: T1, human CTLA-4 (Homo sapiens, UniProt P16410); settings: specific for human CTLA-4; cited from earlier work
# T1 sequence (P16410 36-223): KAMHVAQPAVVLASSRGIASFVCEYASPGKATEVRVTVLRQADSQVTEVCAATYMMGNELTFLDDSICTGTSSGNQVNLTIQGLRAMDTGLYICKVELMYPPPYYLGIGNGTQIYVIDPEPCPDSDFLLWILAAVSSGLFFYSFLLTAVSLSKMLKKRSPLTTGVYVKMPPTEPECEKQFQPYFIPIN
# [9] = system: natural killer (NK) ADCC activity; settings: cited from earlier work
substance,measurement,setting,value
durvalumab,median OS (mOS),[1]; patients with ARID1Am,8.6 months
same,median OS (mOS),[1]; patients with ARID1Awt,13.7 months
same,median OS (mOS),[1]; patients with KEAP1m,7.6 months
same,median OS (mOS),[1]; patients with KEAP1wt,14.6 months
same,median OS (mOS),[1]; patients with STK11m,10.3 months
same,median OS (mOS),[1]; patients with STK11wt,13.3 months
same,"ORR, %",[2]; Blood TMB <20 mut/Mb,(20.6) %
same,Remaining in response (%) at 6 months,[2]; Blood TMB <20 mut/Mb,64.0%
same,Remaining in response (%) at 12 months,[2]; Blood TMB <20 mut/Mb,59.1%
same,"ORR, %",[2]; Blood TMB ≥20 mut/Mb,(29.9) %
same,Remaining in response (%) at 6 months,[2]; Blood TMB ≥20 mut/Mb,86.5%
same,Remaining in response (%) at 12 months,[2]; Blood TMB ≥20 mut/Mb,80.3%
same,HR for death versus chemotherapy,[2]; Tissue TMB ≥10 mut/Mb,0.70
same,median OS,[2]; Tissue TMB ≥10 mut/Mb,18.6 months
same,median OS,[2]; bTMB ≥20 mut/Mb,12.6 months
same,unadjusted HR for death vs. chemotherapy,[2]; bTMB ≥20 mut/Mb,0.72
same,tumor growth in a xenograft model,[3],inhibits tumor growth
same,PD-L1-mediated suppression of human T-cell activation,[4],relieve PD-L1-mediated suppression
same,"All-grade treatment-related AEs (TRAEs), % of patients",[5],54.2%
same,"Immune-mediated AEs of grade 3 or 4, % of patients",[5],4.1%
same,"Immune-mediated AEs, % of patients",[5],13.6%
same,Rates of grade ≥3 TRAEs,[5],14.9%
same,TRAEs leading to discontinuation,[5],5.4%
same,"Treatment-related deaths, %",[5],0.5%
same,"Treatment-related deaths, patients",[5],2 patients
same,Hazard ratio (95% CI) for death compared with chemotherapy,[6]; ITT population,0.96
same,"Median overall survival, months (95% CI)",[6]; ITT population,12.3 months
same,Hazard ratio (95% CI) for death compared with chemotherapy,[6]; PD-L1 TC <1%,1.18
same,"Median overall survival, months (95% CI)",[6]; PD-L1 TC <1%,10.1 months
same,Hazard ratio (95% CI) for death compared with chemotherapy,[6]; PD-L1 TC ≥1%,0.88
same,"Median overall survival, months (95% CI)",[6]; PD-L1 TC ≥1%,14.6 months
same,24-month OS rate,[6]; PD-L1 TC ≥25%,38.3%
same,"Best objective response, Complete response, %",[6]; PD-L1 TC ≥25%,(0.6) %
same,"Best objective response, Not evaluable, %",[6]; PD-L1 TC ≥25%,(1.2) %
same,"Best objective response, Partial response, %",[6]; PD-L1 TC ≥25%,(35.0) %
same,"Best objective response, Progressive disease, %",[6]; PD-L1 TC ≥25%,(32.5) %
same,"Best objective response, Stable disease ≥ 6 weeks, %",[6]; PD-L1 TC ≥25%,(30.7) %
same,HR for death vs. chemotherapy,[6]; PD-L1 TC ≥25%,0.76
same,Remaining in response (%) at 6 months,[6]; PD-L1 TC ≥25%,66.9%
same,Remaining in response (%) at 12 months,[6]; PD-L1 TC ≥25%,61.3%
same,difference in PFS versus chemotherapy group,[6]; PD-L1 TC ≥25%,no statistically significant difference
same,median OS,[6]; PD-L1 TC ≥25% (primary analysis population),16.3 months
same,"ORR, %",[6]; PD-L1 TC ≥25%,35.6%
same,"ORR, %","[6]; PD-L1 TC ≥25%, listed as Durvalumab Monotherapy",(35.6) %
same,"Median DOR, months (95% CI)","[6]; PD-L1 TC ≥25%, Kaplan-Meier, NR = not reached",NR (9.7-NR)
same,Hazard ratio (95% CI) for death compared with chemotherapy,[6]; PD-L1 TC ≥25-49%,0.78
same,"Median overall survival, months (95% CI)",[6]; PD-L1 TC ≥25-49%,11.1 months
same,Hazard ratio (95% CI) for death compared with chemotherapy,[6]; PD-L1 TC ≥50%,0.76
same,"Median overall survival, months (95% CI)",[6]; PD-L1 TC ≥50%,18.3 months
same,Estimated odds ratio vs. chemotherapy (95% CI),[6]; in vivo,0.91
same,Number of events/patients,"[6]; overall survival, ITT population",278/374
same,Number of patients,"[6]; overall survival, PD-L1 TC <1%",84/95
same,Number of patients,"[6]; overall survival, PD-L1 TC ≥1%",194/279
same,Number of patients,"[6]; overall survival, PD-L1 TC ≥25-49%",33/45
same,Number of patients,"[6]; overall survival, PD-L1 TC ≥50%",75/118
tremelimumab,specific binding to Fc receptors,[7],minimal specific binding
same,cross-reactivity to related human proteins,[8],no cross-reactivity
same,induction of natural killer (NK) ADCC activity,[9],does not induce
